Test results from patent publication US11304431B2, “Sweetener and flavor compositions, methods of making and methods of use thereof” (EPC Natural Products Co., Ltd., priority 2018, dated 2022).
Residues, ends and D or L forms follow the SMILES beside them.

Tests used:
[1] = sweetness depends on the tested concentration compared with sucrose; cited from earlier work
[2] = HPLC/DAD/MS of Maillard reaction intermediates (MRI, Amadori products), unreacted partners and degradation kinetics at various pH; conditions: 120 °C; for % formation from degraded Phe: n.d. = not detected
Method: For HPLC analysis the reacted samples were injected after filtration (2 μm syringe filters).
Mobile Phase A consisted of a 0.1% formic acid in water. Mobile Phase B consisted of 0.1% formic acid in acetonitrile. […] Injection volume was set to 20 μl.
The mobile phase consisted of (A) 0.1% HCOOH (v/v) and (B) AcCN. A gradient of 5% (B) to 15% (B) was applied between 0 min to 15 min. Between 15 and 20 min (B) was increased to 45% which was kept for 5 min. Detection consisted of UV/VIS-DAD (205 nm, 254 nm, 450 nm) coupled to ESI-MS (pos mode, 300° C., TIC from m/z 120-1200, fragmentor 100).
Quantitative evaluation was performed using external standardization.

[3] = DPPH radical-scavenging activity (Example 65); conditions: Reb-A 10 mM with or without amino acid, 100° C., 0-5 hours, diluted 1:10; FIG. 49 and 50
Method: 1 mg 1,1-Diphenyl-2-picrylhydrazyl radical (DPPH)/ml ethanol, dilution to assay concentration were prepared in ethanol (40 μg/mL); Calibration samples were prepared with Ascorbic acid in a concentration of 0-10 μg/mL; as a negative control sample, water was used.
Samples in aqueous solution were used as such or diluted with water.
A 0.1 ml sample (or calibration standard) was mixed with 3.9 ml solution of DPPH (100 μMolar) and reacted while protected from light at room temperature for 30 min. Absorbance was determined at 517 nm against ethanol.
10 mM of amino acid and/or 10 mM sugar were dissolved in 10 ml 0.1 mM KH2PO4-buffer, pH=7.8.
The samples were kept at 100° C. in sealed glass vials (Pyrex 15 ml with screw caps) for 0 (before reaction), 2.5 or 5.0 hours. Thereafter the samples were transferred to an ice water bath and cooled down to room temperature. These samples were diluted 1:10 and used for the test assay for anti-oxidant potential.

[4] = reaction of Phe and Suc, pH = 5.5, 1.0 h

Row | SMILES | times sweeter than sucrose (sugar, cane sugar) [1] | further results
1 | O=S(=O)([O-])NC1CCCCC1.[Na+] [sodium cyclamate] | about 30 times | 
2 | O=C(O)[C@H](Cc1ccccc1)NCC(=O)[C@@H](O)[C@H](O)[C@H](O)CO [MRI (Phe-Glu)] |  | % formation from degraded Phe [2, 4]: <0.10%; % formation from degraded Phe ([2]; reaction of Phe and Suc, pH = 7.0, 1.0 h): 0.54%; % formation from degraded Phe ([2]; reaction of Phe and Suc, pH = 8.5, 1.0 h): 0.84%
3 | C[C@H](CC[C@@H](O[C@@H]1O[C@H](CO)[C@@H](O)[C@H](O)[C@H]1O[C@@H]1O[C@H](CO)[C@@H](O)[C@H](O)[C@H]1O)C(C)(C)O)[C@H]1CC[C@@]2(C)[C@H]3CC=C4[C@@H](CC[C@H](O[C@@H]5O[C@H](CO[C@@H]6O[C@H](CO)[C@@H](O)[C@H](O)[C@H]6O)[C@@H](O)[C@H](O)[C@H]5O)C4(C)C)[C@]3(C)[C@H](O)C[C@]12C [mogroside IV] | 126 times | 
4 | C=C1C[C@@]23CC[C@H]4[C@@](C)(CCC[C@@]4(C)C(=O)O[C@@H]4O[C@H](CO)[C@@H](O)[C@H](O)[C@H]4O)[C@@H]2CC[C@]1(O[C@@H]1O[C@H](CO)[C@@H](O)[C@H](O[C@@H]2O[C@H](CO)[C@@H](O)[C@H](O)[C@H]2O)[C@H]1O[C@@H]1O[C@H](CO)[C@@H](O)[C@H](O)[C@H]1O)C3 [Reb-A, Rebaudioside A] |  | anti-oxidant properties [3]: substantial anti-oxidant properties
5 | OC[C@H]1O[C@H](O[C@]2(CCl)O[C@H](CCl)[C@@H](O)[C@@H]2O)[C@H](O)[C@@H](O)[C@H]1Cl [sucralose] | about 600 times | 
6 | OC[C@@H](O)[C@@H](O)[C@H](O)[C@H](O)CO [Mannitol] | 0.55-0.65 times | 
7 | COC(=O)[C@H](Cc1ccccc1)NC(=O)[C@@H](N)CC(=O)O [Aspartame] (H-Asp-Phe-OMe) | 160-200 times | 
8 | C=C1C[C@@]23CC[C@H]4[C@@](C)(CCC[C@@]4(C)C(=O)O[C@@H]4O[C@H](CO)[C@@H](O)[C@H](O)[C@H]4O)[C@@H]2CC[C@]1(O[C@@H]1O[C@H](CO)[C@@H](O)[C@H](O)[C@H]1O)C3 [Rubusoside] | 200 times | 
9 | N[C@H](Cc1ccccc1)C(=O)O [Phe] |  | % degradation [2, 4]: 5.50%; % degradation ([2]; reaction of Phe and Xyl, pH = 7.0, 1.0 h): 4.80%
10 | C[C@H](CC[C@@H](O[C@@H]1O[C@H](CO[C@@H]2O[C@H](CO)[C@@H](O)[C@H](O)[C@H]2O)[C@@H](O)[C@H](O)[C@H]1O[C@@H]1O[C@H](CO)[C@@H](O)[C@H](O)[C@H]1O)C(C)(C)O)[C@H]1CC[C@@]2(C)[C@@H]3CC=C4[C@@H](CC[C@H](O[C@@H]5O[C@H](CO[C@@H]6O[C@H](CO)[C@@H](O)[C@H](O)[C@H]6O)[C@@H](O)[C@H](O)[C@H]5O)C4(C)C)[C@]3(C)[C@H](O)C[C@]12C [mogroside V] | 256-344 times | 
